Experimental data: patent US12728107B2, “Sirtuin activator, and method for activating sirtuin” (Yuki Gosei Kogyo Co., Ltd., priority 2020, dated 2026)
Like-named read-outs stand apart in the source and are kept apart here.

Columns and labels:
[1] = tested on: senescence-associated β-galactosidase (SA-β-Gal) in skin dermal fibroblasts; assay: Senescence marker SA-β-Gal activity (C12FDG fluorescence) in etoposide-treated skin dermal fibroblasts; conditions: FIG. 4
Sirt3 gene [2] = conditions: differentiated C2C12 cells; β-alanine 500 μM and 1 mM; added twice, 24 h apart; vs 1×PBS control; FIG. 1
Sirt1 gene [3] = conditions: differentiated C2C12 cells; β-alanine 500 μM and 1 mM; added twice, 24 h apart; vs 1×PBS control; FIG. 1
Sirt3 gene [4] = conditions: HaCaT cells; β-alanine 500 μM and 10 mM; added twice, 24 h apart; vs 1×PBS control; FIG. 2
Description: (§1) In this example, a transcription of the Sirt1 gene and Sirt3 gene in HaCaT cells, a human epidermal keratinocyte cell line, was measured.
(§2) HaCaT cells were seeded in 6-well plates at 6.0×10^4 cells/well. After 24 hours, β-alanine was added to the cells, and 1×PBS was added to the control cells. After 24 hours of the addition, sample was secondary added, and the medium was aspirated after 24 hours of the second addition of sample. Then, 1×PBS was added at 1 mL/well to wash the cells. RNA extraction from cells, cDNA synthesis, and RT-PCR were performed by the same procedure as in Example 1. The sequences of the used primers of the human sirtuin genes are as follows.

Sirt1 gene [5] = conditions: HaCaT cells; β-alanine 500 μM and 10 mM; added twice, 24 h apart; vs 1×PBS control; FIG. 2
Description: as §1, §2

Sirt6 gene = conditions: skin dermal cells; culture supernatant of C2C12 cells treated with β-alanine; FIG. 3
Description: (§3) In this example, the activation of the sirtuin gene in skin dermal cells via a substance secreted from muscle cells (C2C12 cells) by β-alanine was examined.
(§4) C2C12 cells were seeded in 5-mL Dish at 2.0×10^5 cells/well, and 48 hours later, the medium was replaced with DMEM medium containing 2% HS to induce differentiation. The culture medium was changed every 2 days to a new medium, and differentiation was induced. Then, the medium was changed every 2 days and β-alanine was added, and the culture supernatant was collected after 8 days of culture. 1×PBS was added to the control cells. After 24 hours of the addition, sample was secondary added, and the culture supernatant was collected after 24 hours of the second addition of sample.
(§5) Specifically, cells were seeded at a concentration of 3.0×10^4 cells/mL in a 5 mL dish.
(§6) RNA extraction from cells, cDNA synthesis, and RT-PCR were performed by the same procedure as in Example 2. The sequences of the used primers of the human sirt6 gene are as follows.

Sirt3 gene [6] = conditions: skin dermal cells; culture supernatant of C2C12 cells treated with β-alanine; FIG. 3
Description: as §3, §4, §5, §6

Sirt1 gene [7] = conditions: skin dermal cells; culture supernatant of C2C12 cells treated with β-alanine; FIG. 3
Description: as §3, §4, §5, §6

## NCCC(=O)O [β-alanine, 3-aminopropanoic acid]
[1]; etoposide-treated dermal fibroblasts, culture supernatant of β-alanine-treated C2C12 cells, 48 hours
  fluorescence intensity of C12FDG (SA-β-Gal activity): decreased
Sirt3 gene [2]
  expression of Sirt3: enhanced
Sirt1 gene [3]
  expression of Sirt1: enhanced
Sirt3 gene [4]
  expression of Sirt3: enhanced
Sirt1 gene [5]
  expression of Sirt1: enhanced
Sirt6 gene
  expression of Sirt6: enhanced
Sirt3 gene [6]
  expression of Sirt3: enhanced
Sirt1 gene [7]
  expression of Sirt1: enhanced

## COc1cc([C@@H]2c3cc4c(cc3[C@@H](O[C@@H]3O[C@@H]5CO[C@@H](C)O[C@H]5[C@H](O)[C@H]3O)[C@H]3COC(=O)[C@H]23)OCO4)cc(OC)c1O [etoposide, reference compound]
[1]; dermal fibroblasts, etoposide 50 μM for 30 minutes, vs DMSO control
  fluorescence intensity of C12FDG (SA-β-Gal activity): significantly enhanced
